Measured values reported in ChEMBL document CHEMBL5303573, “Mapping human microbiome drug metabolism by gut bacteria and their genes” (Nature, 2019).

Legend:
[1] = The drug is tested on Dorea formicigenerans strain: ATCC27755 for biotransformation. The drug concentrations were measured before and after a 12-h incubation by liquid-chromatography-coupled mass spectrometry (LC–MS); conditions: 2 µM
[2] = The drug is tested on Ruminococcus lactaris strain: ATCC29176 for biotransformation. The drug concentrations were measured before and after a 12-h incubation by liquid-chromatography-coupled mass spectrometry (LC–MS); conditions: 2 µM
[3] = The drug is tested on Eubacterium ventriosum strain: ATCC27560 for biotransformation. The drug concentrations were measured before and after a 12-h incubation by liquid-chromatography-coupled mass spectrometry (LC–MS); type: ADME; parameters: dose 2 uM, timepoint 0 vs 12 hours; conditions: 2 µM
[4] = bacteroides intestinalis, 12 h, 2 µM
Description: The drug is tested on Bacteroides intestinalis strain: DSM17393 for biotransformation. The drug concentrations were measured before and after a 12-h incubation by liquid-chromatography-coupled mass spectrometry (LC–MS)

[5] = The drug is tested on Edwardsiella tarda strain: ATCC23685 for biotransformation. The drug concentrations were measured before and after a 12-h incubation by liquid-chromatography-coupled mass spectrometry (LC–MS); conditions: 2 µM
[6] = The drug is tested on Bacteroides uniformis strain: ATCC8492 for biotransformation. The drug concentrations were measured before and after a 12-h incubation by liquid-chromatography-coupled mass spectrometry (LC–MS); conditions: 2 µM
[7] = The drug is tested on Eubacterium hallii strain: DSM3353 for biotransformation. The drug concentrations were measured before and after a 12-h incubation by liquid-chromatography-coupled mass spectrometry (LC–MS); conditions: anaerobutyricum hallii, 2 µM
[8] = bifidobacterium adolescentis, 12 h, 2 µM
Description: The drug is tested on Bifidobacterium adolescentis strain: ATCC 15703 for biotransformation. The drug concentrations were measured before and after a 12-h incubation by liquid-chromatography-coupled mass spectrometry (LC–MS)

[9] = parabacteroides johnsonii, 12 h, 2 µM
Description: The drug is tested on Parabacteroides johnsonii strain: DSM18315 for biotransformation. The drug concentrations were measured before and after a 12-h incubation by liquid-chromatography-coupled mass spectrometry (LC–MS)

[10] = The drug is tested on Clostridium sporogenes strain: ATCC15579 for biotransformation. The drug concentrations were measured before and after a 12-h incubation by liquid-chromatography-coupled mass spectrometry (LC–MS); conditions: 2 µM
[11] = The drug is tested on Collinsella aerofaciens strain: ATCC25986 for biotransformation. The drug concentrations were measured before and after a 12-h incubation by liquid-chromatography-coupled mass spectrometry (LC–MS); conditions: 2 µM
[12] = The drug is tested on Clostridium symbiosum strain: ATCC14940 for biotransformation. The drug concentrations were measured before and after a 12-h incubation by liquid-chromatography-coupled mass spectrometry (LC–MS); conditions: 2 µM
[13] = The drug is tested on Providencia stuartii strain: ATCC25827 for biotransformation. The drug concentrations were measured before and after a 12-h incubation by liquid-chromatography-coupled mass spectrometry (LC–MS); conditions: 2 µM
[14] = The drug is tested on Bacteroides cellulosilyticus strain: DSM14838 for biotransformation. The drug concentrations were measured before and after a 12-h incubation by liquid-chromatography-coupled mass spectrometry (LC–MS); conditions: 2 µM
[15] = The drug is tested on Bacteroides vulgatus strain: ATCC8482 for biotransformation. The drug concentrations were measured before and after a 12-h incubation by liquid-chromatography-coupled mass spectrometry (LC–MS); conditions: phocaeicola vulgatus, 2 µM
[16] = The drug is tested on Bacteroides sp. WH2 strain: WH2 for biotransformation. The drug concentrations were measured before and after a 12-h incubation by liquid-chromatography-coupled mass spectrometry (LC–MS); conditions: bacteroides sp. wh2, 12 h, 2 µM
[17] = The drug is tested on Bacteroides xylanisolvens strain: DSM18836 for biotransformation. The drug concentrations were measured before and after a 12-h incubation by liquid-chromatography-coupled mass spectrometry (LC–MS); conditions: 2 µM
[18] = The drug is tested on Bacteroides pectinophilus strain: ATCC43243 for biotransformation. The drug concentrations were measured before and after a 12-h incubation by liquid-chromatography-coupled mass spectrometry (LC–MS); conditions: 2 µM
[19] = The drug is tested on Clostridium scindens strain: ATCC35704 for biotransformation. The drug concentrations were measured before and after a 12-h incubation by liquid-chromatography-coupled mass spectrometry (LC–MS); conditions: 2 µM
[20] = The drug is tested on Subdoligranulum variabile strain: DSM15176 for biotransformation. The drug concentrations were measured before and after a 12-h incubation by liquid-chromatography-coupled mass spectrometry (LC–MS); conditions: 2 µM
[21] = The drug is tested on Anaerotruncus colihominis strain: DSM17241 for biotransformation. The drug concentrations were measured before and after a 12-h incubation by liquid-chromatography-coupled mass spectrometry (LC–MS); conditions: 2 µM
[22] = bacteroides fragilis, 12 h, 2 µM
Description: The drug is tested on Bacteroides fragilis strain: NCTC 9343 for biotransformation. The drug concentrations were measured before and after a 12-h incubation by liquid-chromatography-coupled mass spectrometry (LC–MS)

[23] = The drug is tested on Bacteroides coprophilus strain: DSM18228 for biotransformation. The drug concentrations were measured before and after a 12-h incubation by liquid-chromatography-coupled mass spectrometry (LC–MS); conditions: 2 µM
[24] = akkermansia muciniphila, 12 h, 2 µM
Description: The drug is tested on Akkermansia muciniphila strain: ATCC BAA-835 for biotransformation. The drug concentrations were measured before and after a 12-h incubation by liquid-chromatography-coupled mass spectrometry (LC–MS)

[25] = The drug is tested on Coprococcus comes strain: ATCC27758 for biotransformation. The drug concentrations were measured before and after a 12-h incubation by liquid-chromatography-coupled mass spectrometry (LC–MS); type: ADME; parameters: dose 2 uM, timepoint 0 vs 12 hours; conditions: 2 µM
[26] = anaerostipes sp., 12 h, 2 µM
Description: The drug is tested on Anaerostipes sp. strain: fecal isolate for biotransformation. The drug concentrations were measured before and after a 12-h incubation by liquid-chromatography-coupled mass spectrometry (LC–MS)

[27] = The drug is tested on Bacteroides fragilis strain: ATCC43859 for biotransformation. The drug concentrations were measured before and after a 12-h incubation by liquid-chromatography-coupled mass spectrometry (LC–MS); conditions: 2 µM
[28] = The drug is tested on Eubacterium rectale strain: ATCC33656 for biotransformation. The drug concentrations were measured before and after a 12-h incubation by liquid-chromatography-coupled mass spectrometry (LC–MS); conditions: agathobacter rectalis, 2 µM
[29] = victivallis vadensis, 12 h, 2 µM
Description: The drug is tested on Victivallis vadensis strain: ATCC BAA-548 for biotransformation. The drug concentrations were measured before and after a 12-h incubation by liquid-chromatography-coupled mass spectrometry (LC–MS)

[30] = The drug is tested on Clostridium ramosum strain: DSM1402 for biotransformation. The drug concentrations were measured before and after a 12-h incubation by liquid-chromatography-coupled mass spectrometry (LC–MS); conditions: thomasclavelia ramosa, 2 µM
[31] = The drug is tested on Enterococcus faecalis strain: V583 for biotransformation. The drug concentrations were measured before and after a 12-h incubation by liquid-chromatography-coupled mass spectrometry (LC–MS); conditions: 2 µM
[32] = The drug is tested on Bifidobacterium ruminantium strain: fecal isolate for biotransformation. The drug concentrations were measured before and after a 12-h incubation by liquid-chromatography-coupled mass spectrometry (LC–MS); conditions: 2 µM
[33] = The drug is tested on Blautia luti strain: DSM14534 for biotransformation. The drug concentrations were measured before and after a 12-h incubation by liquid-chromatography-coupled mass spectrometry (LC–MS); type: ADME; parameters: dose 2 uM, timepoint 0 vs 12 hours; conditions: 2 µM
[34] = The drug is tested on Collinsella intestinalis strain: DSM13280 for biotransformation. The drug concentrations were measured before and after a 12-h incubation by liquid-chromatography-coupled mass spectrometry (LC–MS); conditions: 2 µM
[35] = The drug is tested on Anaerococcus hydrogenalis strain: DSM7454 for biotransformation. The drug concentrations were measured before and after a 12-h incubation by liquid-chromatography-coupled mass spectrometry (LC–MS); conditions: 2 µM
[36] = segatella copri, 12 h, 2 µM
Description: The drug is tested on Prevotella copri strain: DSM18205 for biotransformation. The drug concentrations were measured before and after a 12-h incubation by liquid-chromatography-coupled mass spectrometry (LC–MS)

[37] = The drug is tested on Ruminococcus gnavus strain: ATCC29149 for biotransformation. The drug concentrations were measured before and after a 12-h incubation by liquid-chromatography-coupled mass spectrometry (LC–MS); conditions: mediterraneibacter gnavus, 2 µM
[38] = The drug is tested on Ruminococcus torques strain: ATCC27756 for biotransformation. The drug concentrations were measured before and after a 12-h incubation by liquid-chromatography-coupled mass spectrometry (LC–MS); type: ADME; parameters: dose 2 uM, timepoint 0 vs 12 hours; conditions: 2 µM
[39] = bacteroides eggerthii, 12 h, 2 µM
Description: The drug is tested on Bacteroides eggerthii strain: DSM20697 for biotransformation. The drug concentrations were measured before and after a 12-h incubation by liquid-chromatography-coupled mass spectrometry (LC–MS)

CCOC(=O)[C@H](CCc1ccccc1)N[C@@H](C)C(=O)N1[C@H](C(=O)O)C[C@@H]2CCC[C@@H]21
Bacterial Biotransformation [1]: Compound NOT metabolized
Bacterial Biotransformation [2]: Compound NOT metabolized
Bacterial Biotransformation [3]: Compound NOT metabolized
Bacterial Biotransformation [4]: Compound NOT metabolized
Bacterial Biotransformation [5]: Compound NOT metabolized
Bacterial Biotransformation [6]: Compound metabolized
Bacterial Biotransformation [7]: Compound NOT metabolized
Bacterial Biotransformation [8]: Compound NOT metabolized
Bacterial Biotransformation [9]: Compound NOT metabolized
Bacterial Biotransformation [10]: Compound NOT metabolized
Bacterial Biotransformation [11]: Compound NOT metabolized
Bacterial Biotransformation [12]: Compound NOT metabolized
Bacterial Biotransformation [13]: Compound NOT metabolized
Bacterial Biotransformation [14]: Compound metabolized
Bacterial Biotransformation [15]: Compound metabolized
Bacterial Biotransformation [16]: Compound NOT metabolized
Bacterial Biotransformation [17]: Compound metabolized
Bacterial Biotransformation [18]: Compound NOT metabolized
Bacterial Biotransformation [19]: Compound NOT metabolized
Bacterial Biotransformation [20]: Compound NOT metabolized
Bacterial Biotransformation [21]: Compound NOT metabolized
Bacterial Biotransformation [22]: Compound NOT metabolized
Bacterial Biotransformation [23]: Compound NOT metabolized
Bacterial Biotransformation [24]: Compound NOT metabolized
Bacterial Biotransformation [25]: Compound NOT metabolized
Bacterial Biotransformation [26]: Compound NOT metabolized
Bacterial Biotransformation [27]: Compound metabolized
Bacterial Biotransformation [28]: Compound NOT metabolized
Bacterial Biotransformation [29]: Compound NOT metabolized
Bacterial Biotransformation [30]: Compound NOT metabolized
Bacterial Biotransformation [31]: Compound NOT metabolized
Bacterial Biotransformation [32]: Compound NOT metabolized
Bacterial Biotransformation [33]: Compound NOT metabolized
Bacterial Biotransformation [34]: Compound NOT metabolized
Bacterial Biotransformation [35]: Compound NOT metabolized
Bacterial Biotransformation [36]: Compound NOT metabolized
Bacterial Biotransformation [37]: Compound NOT metabolized
Bacterial Biotransformation [38]: Compound NOT metabolized
Bacterial Biotransformation [39]: Compound NOT metabolized
